“And” between values parts separate entries of the source, which are not always exact repeats. Equal entries are not always repeated. After the bases stand the sugars from the 5' end (letter, count) and the backbone: PS all phosphorothioate, else s phosphorothioate and o phosphodiester by linkage. Methylation of C is not given here. k = constrained ethyl (cEt); d = 2'-deoxy (DNA)

This series concerns the target MALAT1. To be noted: ASO, A431, 0.005 µM.
Take CTGCACTGTGCTGTAC (sugars k3 d10 k3, PS): the target mRNA inhibition was -5%.

For CTGCAGAGTTTGAGTG (sugars k3 d10 k3, PS), the target mRNA inhibition is -19%. Then CTGCAGGCTATTACCT (sugars k3 d10 k3, PS), with -6%; and CTGGGTCAGCTGTCAA (sugars k3 d10 k3, PS), with 33%.

For the sequence CTGGTACACCCAGTGG (sugars k3 d10 k3, PS), the target mRNA inhibition came to 4%. For the sequence CTGGTTAGGTATGAGC (sugars k3 d10 k3, PS), the target mRNA inhibition was found to be 3%. Then CTGTTTAAGTCACCTT (sugars k3 d10 k3, PS), with 76% and 61%; and CTTAAAGCACTTCTTG (sugars k3 d10 k3, PS), with -34%. As for CTTAGTTGGCATCAAG (sugars k3 d10 k3, PS), the figure is 31%; as for CTTATCTGCGGTTTCC (sugars k3 d10 k3, PS), 62% and 53%; as for CTTATCTGTTAACAGC (sugars k3 d10 k3, PS), 43%. As to CTTATGGAACTTGAAT (sugars k3 d10 k3, PS), the target mRNA inhibition is -5%.

Consider CTTCAACATTTGGCCT (sugars k3 d10 k3, PS), for which the target mRNA inhibition stood at 18%. Then CTTCTCTAACCCAGTT (sugars k3 d10 k3, PS), with 15%. Take CTTCTGATAACGAAGA (sugars k3 d10 k3, PS): the target mRNA inhibition is -5%.

As to CTTCTGCACCACCAGA (sugars k3 d10 k3, PS), the target mRNA inhibition was determined as 13%. Turning to CTTGTCTTAGCTTGTT (sugars k3 d10 k3, PS), the target mRNA inhibition was 71% and 61%.

As to CTTGTGTTCTCTTGAG (sugars k3 d10 k3, PS), the target mRNA inhibition stood at 13%. Then CTTTAAGCTGTTTAAG (sugars k3 d10 k3, PS), with -4%; and CTTTACACCTCAGTAC (sugars k3 d10 k3, PS), with 38%; and CTTTTAATCATACTCC (sugars k3 d10 k3, PS), with 16%.

Turning to GAAAGCGAGTTCAAGT (sugars k3 d10 k3, PS), the target mRNA inhibition is -1%. Then GAAATCCCCTAGGGAA (sugars k3 d10 k3, PS), with 6%; and GAACAGTACTGCATTT (sugars k3 d10 k3, PS), with 28%. As for GAACTAGTGGTTCCCA (sugars k3 d10 k3, PS), the figure is 46%; as for GAAGAAGCTTCATCTC (sugars k3 d10 k3, PS), 15%. As for GAAGAGCATTGGAGAT (sugars k3 d10 k3, PS), the figure is 49%. Turning to GAAGCATACCTTAACA (sugars k3 d10 k3, PS), the target mRNA inhibition is 5%. As for GAAGCCCCTGCGCTGG (sugars k3 d10 k3, PS), the target mRNA inhibition is 23%. Turning to GAAGGATGAAATGCCT (sugars k3 d10 k3, PS), the target mRNA inhibition worked out at 7%.

On to GAAGTGTTTACACTGC (sugars k3 d10 k3, PS), for which the target mRNA inhibition is 11%. Consider GAATCTCAGGGTTATG (sugars k3 d10 k3, PS), for which the target mRNA inhibition is 57% and 76%. Then GAATTCGATCACCTTC (sugars k3 d10 k3, PS), with -1%. Regarding GACAAGGCAGTTATAT (sugars k3 d10 k3, PS), the target mRNA inhibition was 1%. For the sequence GACACTTTCCTTGCCC (sugars k3 d10 k3, PS), the target mRNA inhibition stood at 48%.

GACAGACCTAAGGGAA (sugars k3 d10 k3, PS): the target mRNA inhibition turned out to be 34%.

Take GACAGCTAAGATAGCA (sugars k3 d10 k3, PS): the target mRNA inhibition was 12%. As for GACCTGCCTTCAGGCG (sugars k3 d10 k3, PS), the figure is 13%; as for GACTGCTTAAAACTGC (sugars k3 d10 k3, PS), 36%.

For the origin of these results see the OligoGym collection.
